Data: patent US8110570B2, “Modulators of acetyl-coenzyme A carboxylase and methods of use thereof” (Cropsolution, Inc., priority 2008, dated 2012)

Experiments:
[1] = target: uACC (Ustilago maydis ACC) (Ustilago maydis, UniProt A0A0D1DYD5); experiment: [14C]bicarbonate incorporation assay, overall ACC activity; assay type: biochemical
C2C12 cells = experiment: Fatty acid oxidation assay, [1-14C]palmitate to CO2; assay type: cell-based, mouse; conditions: compared to untreated controls
Source text: (§1) The in vivo ACC inhibitory activity of compounds in this invention can be confirmed in cultured cells using standard procedures that are well known to those skilled in the art. For example, since ACC catalyzes the first committed step in fatty acid biosynthesis, the in vivo activity of compounds can be confirmed by measuring their ability to prevent the formation of radiolabeled fatty acids from radiolabeled acetate in cultured human hepatoma cells (HepG2). In addition, since the malonyl-CoA produced by ACC inhibits fatty acid oxidation, the in vivo ACC inhibitory activity of compounds can be further confirmed by measuring the stimulation of fatty acid oxidation in cultured mouse myoblast cells (C2C12).
Fatty acid oxidation assays are performed essentially as described (Beckers et al., Cancer Res, 2007, 67: 8180-8187). Briefly, C2C12 cells are plated at 600,000 cells/T25 flask. The next day, media is changed and the DMSO with or without test compound is added to a final concentration of 0.5% (v/v). After 1 h at 37° C. in atmosphere of 5% CO2, freshly made 2 uCi of FA-free bovine serum albumin-[1-^14C] palmitate complex is added to each flask. The flasks are then sealed with a stopper and incubated 6 h at 37° C. after which evolved CO2 is liberated by injection of perchloric acid to final concentration of 5% and captured by incubating the flasks overnight in the presence of filter paper soaked with 5% KOH. The filters are then air-dried and incubated with scintillation cocktail overnight for equilibrium. Radioactivity is quantified by scintillation counting.

HepG2 cells = experiment: Fatty acid synthesis assay, 14C-acetate incorporation into phospholipids; assay type: cell-based; conditions: Homo sapiens, 24 h, read-out: inhibition of radiolabel incorporation into phospholipids
Source text: as §1
Fatty acid synthesis assays are performed with slight modifications to published procedures (Beckers et al., Cancer Res, 2007, 67: 8180-8187; Wang, J Lipid Res., 2006, 47:2028-41). Briefly, HepG2 cells are grown in Dulbecco's modified eagles medium containing 10% fetal calf serum in 6-well culture plates. Cells are treated for 24 h with test compounds added as DMSO stock solutions to a final DMSO concentration of 0.5% (v/v). After test compound incubation, ^14C—[2]-acetate is added (3 μCi/6 well plate) and cells are further incubated for 4 hrs. Cells are then harvested in 40% methanol and assayed for total protein. Total lipids are extracted with chloroform:methanol (2:1) and ^14C-radioactivity is quantified in the aqueous and organic phases. Total lipids in the organic phase are separated by thin-layer chromatography (TLC, silica gel 60A) using hexane:ether:acetic acid (90:30:1) as the mobile phase. Radioactivity distribution of lipid classes on TLC plates is quantified by phosphorimaging (Molecular Dynamics Storm 820). Compound 6 inhibited radiolabel incorporation into phospholipids 32% and 14% at 10 μM and 1 μM, respectively, while Compound 2 inhibited radiolabel incorporation into phospholipids 93% and 42% at 10 μM and 1 μM, respectively.

Sequence of uACC (Ustilago maydis ACC) (A0A0D1DYD5 entry or part of it): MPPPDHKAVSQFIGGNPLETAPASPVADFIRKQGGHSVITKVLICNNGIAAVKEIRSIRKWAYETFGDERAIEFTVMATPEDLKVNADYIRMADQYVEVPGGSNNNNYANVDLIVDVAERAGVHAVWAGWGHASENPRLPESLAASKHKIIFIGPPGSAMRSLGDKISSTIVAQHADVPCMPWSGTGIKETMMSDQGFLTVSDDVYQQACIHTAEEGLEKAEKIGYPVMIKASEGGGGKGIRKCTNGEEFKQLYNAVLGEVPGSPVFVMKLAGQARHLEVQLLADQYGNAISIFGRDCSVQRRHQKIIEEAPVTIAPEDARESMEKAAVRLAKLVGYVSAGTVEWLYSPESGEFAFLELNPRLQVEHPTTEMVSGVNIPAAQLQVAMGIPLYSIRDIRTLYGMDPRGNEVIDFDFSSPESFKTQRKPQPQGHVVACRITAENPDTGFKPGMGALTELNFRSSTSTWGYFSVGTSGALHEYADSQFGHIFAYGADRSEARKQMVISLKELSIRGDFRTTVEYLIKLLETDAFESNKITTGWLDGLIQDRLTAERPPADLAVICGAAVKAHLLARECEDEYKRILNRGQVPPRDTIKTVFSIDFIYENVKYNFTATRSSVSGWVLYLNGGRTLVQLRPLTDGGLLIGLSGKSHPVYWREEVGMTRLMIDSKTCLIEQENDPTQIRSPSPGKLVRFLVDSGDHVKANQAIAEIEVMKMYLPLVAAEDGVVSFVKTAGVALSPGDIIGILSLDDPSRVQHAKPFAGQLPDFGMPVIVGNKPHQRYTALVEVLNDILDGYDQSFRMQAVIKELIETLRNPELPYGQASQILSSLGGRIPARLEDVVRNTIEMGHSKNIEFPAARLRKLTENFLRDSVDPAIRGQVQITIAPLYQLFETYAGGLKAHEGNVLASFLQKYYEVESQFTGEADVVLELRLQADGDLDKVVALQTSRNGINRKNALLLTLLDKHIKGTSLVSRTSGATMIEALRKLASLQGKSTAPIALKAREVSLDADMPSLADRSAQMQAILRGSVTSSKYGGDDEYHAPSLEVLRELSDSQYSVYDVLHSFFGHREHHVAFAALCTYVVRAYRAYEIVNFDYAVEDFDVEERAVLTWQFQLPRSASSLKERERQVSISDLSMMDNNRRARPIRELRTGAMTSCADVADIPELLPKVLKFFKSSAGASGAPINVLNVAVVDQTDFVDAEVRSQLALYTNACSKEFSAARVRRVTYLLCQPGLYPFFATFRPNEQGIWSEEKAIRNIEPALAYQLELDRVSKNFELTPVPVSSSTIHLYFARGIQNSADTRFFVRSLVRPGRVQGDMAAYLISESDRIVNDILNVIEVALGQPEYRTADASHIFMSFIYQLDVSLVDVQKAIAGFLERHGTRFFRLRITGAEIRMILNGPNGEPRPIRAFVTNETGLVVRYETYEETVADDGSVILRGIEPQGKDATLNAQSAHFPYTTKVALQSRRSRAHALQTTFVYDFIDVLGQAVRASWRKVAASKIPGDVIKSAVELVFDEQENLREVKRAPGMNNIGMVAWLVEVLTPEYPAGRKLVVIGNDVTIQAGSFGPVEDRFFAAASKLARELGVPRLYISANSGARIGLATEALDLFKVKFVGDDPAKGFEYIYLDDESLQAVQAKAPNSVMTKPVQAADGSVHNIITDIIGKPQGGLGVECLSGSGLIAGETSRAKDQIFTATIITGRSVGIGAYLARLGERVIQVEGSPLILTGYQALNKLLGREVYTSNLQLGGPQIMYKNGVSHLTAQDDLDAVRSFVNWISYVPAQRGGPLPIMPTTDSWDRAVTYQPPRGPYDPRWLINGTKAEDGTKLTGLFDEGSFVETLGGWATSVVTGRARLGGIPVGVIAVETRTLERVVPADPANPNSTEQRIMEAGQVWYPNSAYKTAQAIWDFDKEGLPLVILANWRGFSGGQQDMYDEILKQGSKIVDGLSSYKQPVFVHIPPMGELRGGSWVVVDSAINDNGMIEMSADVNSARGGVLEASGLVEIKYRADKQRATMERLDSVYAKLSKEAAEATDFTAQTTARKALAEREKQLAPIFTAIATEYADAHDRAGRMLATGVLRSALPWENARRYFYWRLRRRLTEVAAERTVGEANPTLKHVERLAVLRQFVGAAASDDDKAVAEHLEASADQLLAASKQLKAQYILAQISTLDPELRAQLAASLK

For COc1cc(C(=O)N2CCC3(CC2)NC(=O)c2cc(Br)ccc2O3)nc2c(OC)cccc12 [Compound 2, 6-Bromo-1′-[(4,8-dimethoxyquinoline-2-yl)carbonyl]spiro[2H-1,3-benzoxazine-2,4′-piperidine]-4(3H)-one], which IC50 [1] is on record?
Its IC50 is 11 µM.

What about the “stimulation of fatty acid oxidation” value (C2C12 cells; C2C12, 0.1 μM) of the same compound?
Its value is 170%.

What about the “stimulation of fatty acid oxidation” value (C2C12 cells; C2C12, 1 μM) of the same compound?
Its value is 320%.

And the inhibition at 1 µM (HepG2 cells; HepG2, 1 μM)?
The inhibition at 1 µM was 42%.

And the inhibition at 10 µM (HepG2 cells; HepG2, 10 μM)?
The inhibition at 10 µM was 93%.
